Assay results published in paper PMC10094648, “Short, Lipidated Dendrimeric γ-AApeptides as New Antimicrobial Peptidomimetics” (International Journal of Molecular Sciences, 2023).
Read-outs that look alike come from different tables or passages of the source.

Legend:
Human red blood cells [1] = test: Hemolytic activity; settings: HC50 over MIC against MRSA
Protocol: (§3) Human red blood cells were washed with 1 × PBS buffer, then centrifuged at 700 g for 10 min. After discarding the top clear solution, the bottom cells were diluted to obtain 5% solution using 1 × PBS buffer.
(§4) Then, 50 μL of cell solution was injected into 96-well plates. Following this, 50 μL of synthesized compounds with different concentrations from 250 to 1.95 μg/mL were added into 96-well plates. Then, the mixture was incubated for 1 h at 37 °C. After centrifuging at 3500× g rpm for 10 min, 30 μL of the supernatant was transferred into a new 96-well plate with 100 μL of 1 × PBS buffer. With the same microplate reader, the data of absorbance at 540 nm were compared. Positive control: 2% Triton-100. Calculation formula: percentage of hemolysis = [(Absorbance of sample-Absorbance of PBS)/(Absorbance of Triton-Absorbance of PBS)] × 100

Human red blood cells [2] = settings: red cells of human, 1 h
Protocol: as §3, §4

MRSA (ATCC 33591) = format: cell-based, methicillin-resistant Staphylococcus aureus
Protocol: (§1) Chemical reagents and solvents were bought from Sigma Aldrich, Oakwood, TCI, and Chem-Impex. Final products were purified with Waters Breeze 2 HPLC and lyophilized using Labconco lyophilizer. HPLC traces of the final product were collected using 5–95% acetonitrile in water with 0.1% HPLC-grade TFA for at least 40 min. The nuclear magnetic resonance (NMR) data were collected using the Agilent 600 MHz NEO instrument. High-resolution mass spectra of compounds (Table S1) were collected using an Agilent Technologies 6540 UHD accurate-mass Q-TOF LC/MS spectrometer. Antibacterial assays and mechanism of action studies were performed using a Biotec multimode microplate reader synergy H4. Six different species of bacteria were used for bacteria assay tests, such as MRSA (ATCC 33591), MRSE (RP62A), VREF (ATCC 700802), E. coli (ATCC 25922), K. pneumoniae (ATCC 13383), and P. aeruginosa (ATCC 27853).
(§2) Concisely, E. coli, K. pneumoniae, P. aeruginosa, MRSA, MRSE, and VREF were cultivated in 37 °C TSB medium for 16 h. Subsequently, 4 ml of new TSB medium was added to 100 μL of cultivated bacterial solution and incubated for another 6 h to reach the mid-log phase. Next, 96-well plates were injected with 50 μL of bacterial solution that reached mid-log phase and 50 μL of compounds with different concentrations, which ranged from 0.75–25 μg/mL. Then, the 96-wells plates were incubated for another 16 h at 37 °C. After 16 h, MICs were determined by a multimode microplate reader.

E. coli (ATCC 25922) = format: cell-based; settings: ATCC 25922, 16 h
Protocol: as §1, §2

E.F. (VREF, ATCC 700802) = format: cell-based; settings: ATCC 700802, 16 h
Protocol: as §1, §2

[3] = system: P. aeruginosa (ATCC 27853); format: cell-based; settings: ATCC 27853, 16 h
Protocol: as §1, §2

[4] = system: K. pneumoniae (ATCC 13383); format: cell-based; settings: ATCC 13383, 16 h
Protocol: as §1, §2

MRSE (RP62A) = format: cell-based; settings: 16 h
Protocol: as §1, §2

[5] = TSB medium, 16 h at 37 °C, compounds 0.75–25 μg/mL, microplate reader

SMILES | Selectivity Index (HC50/MICMRSA) (Human red blood cells [1]) | HC50 (Human red blood cells [2]) [µg/mL] | MIC, Gram-Positive (+), MRSA (MRSA (ATCC 33591); [5]) [µg/mL] | MIC, Gram-Negative (−), E. coli (E. coli (ATCC 25922)) [µg/mL] | MIC, Gram-Positive (+), MRSA (MRSA (ATCC 33591); ATCC 33591, 16 h) [µg/mL] | MIC, Gram-Positive (+), E.F. (E.F. (VREF, ATCC 700802)) [µg/mL] | MIC, Gram-Negative (−), P.A. [3] [µg/mL] | MIC, Gram-Negative (−), K.P. [4] [µg/mL] | MIC, Gram-Positive (+), MRSE (MRSE (RP62A)) [µg/mL]
CCCCCCCCCCCCCCCC(=O)N[C@@H](CCCCN)CN(CC(N)=O)C(=O)CCN(C[C@@H](N)CCCCN)C(=O)CCN [YW-6] | >83.3 | >125 | 0.75 to 1.5 | 6 to 12.5 | – | – | – | – | –
CCCCCCCCCCCCCCCC(=O)N[C@@H](CO)CN(CC(N)=O)C(=O)CCN(C[C@@H](N)CCCCN)C(=O)CCN [YW-5] | >41.7 | >125 | – | 6 to 12.5 | 1.5 to 3 | – | – | – | –
CCCCCCCCCCCCCCCC(=O)N[C@@H](Cc1ccccc1)CN(CC(N)=O)C(=O)CCN(C[C@@H](N)CCCCN)C(=O)CCN [YW-2] | >41.7 | >125 | – | 3.0 to 6.0 | 1.5 to 3 | 1.5 to 3 | 12.5 to 25 | 6 to 12.5 | 1.5 to 3
CCCCCCCCCCCCCCCC(=O)N[C@@H](C)CN(CC(N)=O)C(=O)CCN(C[C@@H](N)CCCCN)C(=O)CCN [YW-3] | >83.3 | >125 | 0.75 to 1.5 | 3.0 to 6.0 | – | 3.0 to 6.0 | 6 to 12.5 | >25 | 6 to 12.5
